Like-named read-outs stand apart in the source and are kept apart here.
What was measured:
[1] = system: eye of healthy volunteers; assay: Intraocular pressure lowering effect in healthy volunteers (applanation tonometer); format: in vivo, human; conditions: for Intraocular pressure lowering effect (difference in IOP between test eye and control eye): 12 μg/eye; for lowered the IOP by, as compared with the control eye: 12 μg
Description: The vehicle solution was ocularly administered to the contralateral eye (control eye). Intraocular pressure (IOP) was measured by means of an applanation tonometer before, and 4, 6, and 12 hours after the administration. The IOP lowering effect of the test compound was evaluated based on difference in IOP between test eye and the control eye at each time point of IOP measurement.

monkey eyes [2] = assay: Effects on IOP in monkey eyes (applanation pneumatonometer); format: in vivo, cynomolgus monkeys; conditions: 15 μg/eye
Description: (§1) Nine male cynomolgus monkeys (body weights of animals ranged between 3.2 and 5.4 kg) without abnormalities in the anterior segment of the eye were used.
(§2) The left eye received an equal volume of the vehicle.
Intraocular pressure (IOP) measurements were conducted by means of an applanation pneumatonometer (Model 30 Classic™, Mentor O & O, Inc., USA) immediately before the administration (0-hour), and at 2, 4, 8, 12, 24, 28, and 32 hours after the administration.

monkey eyes [3] = assay: Eye irritancy scoring in monkeys (criteria based on Draize test); format: in vivo, cynomolgus monkeys; set-up: key to Eye irritancy (Score) Conjunctivae Chemosis: 0: No swelling; 1: Any swelling above normal (includes nictitating membrane); 2: Obvious swelling with partial eversion of the lids; 3: Swelling with lids about half closed; 4: Swelling with lids about half closed to completely closed; conditions: 15 μg/eye
Text: as §1, §2
Eye irritancy was scored according to the criteria presented in Table 4 at the same time points as IOP measurements. These criteria are based on those of Draize test.

eye of Dutch rabbits = assay: 13-week repeated ocular administration, irritable response in cornea, conjunctiva or iris; format: in vivo
Description: The administration was performed 4 times a day with 2-hour intervals for 13 weeks. The cornea, conjunctiva and iris were observed about occurrence of irritable response before, and 4, 8, and 13 weeks after the initiation of the administration. The observation was performed within the time from 0.5 hour to 2 hours after the last administration of the day. The cornea was observed about a presence of opacity and its area in the cornea. The conjunctiva was observed about occurrence of hyperemia, redness and swelling. The iris was observed about occurrence of hyperemia, congestion, swelling and hemorrhage. The ratio of cases showing irritable response in the cornea, conjunctiva or iris was evaluated by percent in the group.

eye of white rabbits = assay: Incidence of conjunctival hyperemia after single ocular administration; conditions: 50 μg eye drop, once to one eye, two hours after the administration
Description: The presence of conjunctival hyperemia was examined at two hours after the administration and the ratio of cases showing conjunctival hyperemia was evaluated by percent in each group.

monkey eyes [4] = conditions: dose of 3 μg; cited from earlier work
monkey eyes [5] = conditions: 50 μg per eye; cited from earlier work
healthy human eyes = conditions: dose of 5 μg, cited from earlier work

CC(C)OC(=O)CCC/C=C\C[C@@H]1[C@@H](CCC(=O)CCc2ccccc2)[C@H](O)C[C@@H]1O [13,14-dihydro-15-keto-17-phenyl-18,19,20-trinor-PGF2α isopropyl ester]
Intraocular pressure lowering effect (difference in IOP between test eye and control eye) ([1]; 4 hours after administration): −1.0 mmHg
lowered the IOP by, as compared with the control eye ([1]; 4 hours after the administration): 1.0 mmHg
Intraocular pressure lowering effect (difference in IOP between test eye and control eye) ([1]; 6 hours after administration): −0.8 mmHg
lowered the IOP by, as compared with the control eye ([1]; 6 hours after the administration): 0.8 mmHg
Intraocular pressure lowering effect (difference in IOP between test eye and control eye) ([1]; 12 hours after administration): −1.1 mmHg
lowered the IOP by, as compared with the control eye ([1]; 12 hours after the administration): 1.1 mmHg
IOP (monkey eyes [2]; 0 hr (immediately before administration), right eye, Mean ± SE): 19.7 ± 0.6 mmHg
IOP reduction (monkey eyes [2]; topical): significant IOP reduction
Eye irritancy (Score) Conjunctivae Chemosis (monkey eyes [3]; 2 hr after administration): 0
Eye irritancy (Score) Conjunctivae Chemosis (monkey eyes [3]; 4 hr after administration): 0
Eye irritancy (Score) Conjunctivae Chemosis (monkey eyes [3]; 8 hr after administration): 0
Eye irritancy (Score) Conjunctivae Chemosis (monkey eyes [3]; 12 hr after administration): 0
Eye irritancy (Score) Conjunctivae Chemosis (monkey eyes [3]; 24 hr after administration): 0
Eye irritancy (Score) Conjunctivae Chemosis (monkey eyes [3]; 28 hr after administration): 0
Eye irritancy (Score) Conjunctivae Chemosis (monkey eyes [3]; 32 hr after administration): 0
Eye irritancy (Score) Conjunctivae Chemosis (monkey eyes [3]; Before administration): 0
signs or symptoms of ocular irritation (monkey eyes [3]; after topical administration): no signs or symptoms
effect on the cornea, conjunctiva and iris (eye of Dutch rabbits; 30 μg/eye each 4 times a day for 13 weeks): no effect
Incidence rate of ocular irritation (eye of Dutch rabbits; 4 weeks after initiation, 30 μg/eye 4 times/day): 0%
Incidence rate of ocular irritation (eye of Dutch rabbits; 8 weeks after initiation, 30 μg/eye 4 times/day): 0%
Incidence rate of ocular irritation (eye of Dutch rabbits; 13 weeks after initiation, 30 μg/eye 4 times/day): 0%
Incidence rate of ocular irritation (eye of Dutch rabbits; Pre (before initiation of administration)): 0%
Incidence Rate of Conjunctival Hyperemia (eye of white rabbits): 33%
intraocular pressure reducing effects (monkey eyes [4]): showed intraocular pressure reducing effects
intraocular pressure reducing effects (monkey eyes [5]): showed intraocular pressure reducing effects
intraocular pressure reducing effects (healthy human eyes; healthy human eyes): showed intraocular pressure reducing effects
side effect such as conjunctival hyperemia, ocular irritation and foreign body sensation (healthy human eyes; in the human): no side effect

Reference: US20040254247A1, “Method and composition for treatnment of ocular hypertension and glaucoma” (priority 2001, published 2004)
